Results published in US7256007B2, “Methods of regulating cytokine signalling” (The Walter and Eliza Hall Institute of Medical Research, priority 2000, dated 2007).
Square brackets hold non-standard residues; d marks the D form. Ends that are not written are not given here. Peptide text beside a SMILES is read from it. pY = N[C@@H](Cc1ccc(OP(=O)(O)O)cc1)C(=O)O

B1: AcTVE(pY)STVVHSG (peptide)
chain: Ac-TVE[pY]STVVHSG-NH2
SMILES: CC(=O)N[C@H](C(=O)N[C@H](C(=O)N[C@@H](CCC(=O)O)C(=O)N[C@@H](Cc1ccc(OP(=O)(O)O)cc1)C(=O)N[C@@H](CO)C(=O)N[C@H](C(=O)N[C@H](C(=O)N[C@H](C(=O)N[C@@H](Cc1c[nH]cn1)C(=O)N[C@@H](CO)C(=O)NCC(N)=O)C(C)C)C(C)C)[C@@H](C)O)C(C)C)[C@@H](C)O
B2: Ac(pY)STVVHSG (peptide)
chain: Ac-[pY]STVVHSG-NH2
SMILES: CC(=O)N[C@@H](Cc1ccc(OP(=O)(O)O)cc1)C(=O)N[C@@H](CO)C(=O)N[C@H](C(=O)N[C@H](C(=O)N[C@H](C(=O)N[C@@H](Cc1c[nH]cn1)C(=O)N[C@@H](CO)C(=O)NCC(N)=O)C(C)C)C(C)C)[C@@H](C)O
B3: AcE(pY)STVVHSG (peptide)
chain: Ac-E[pY]STVVHSG-NH2
SMILES: CC(=O)N[C@@H](CCC(=O)O)C(=O)N[C@@H](Cc1ccc(OP(=O)(O)O)cc1)C(=O)N[C@@H](CO)C(=O)N[C@H](C(=O)N[C@H](C(=O)N[C@H](C(=O)N[C@@H](Cc1c[nH]cn1)C(=O)N[C@@H](CO)C(=O)NCC(N)=O)C(C)C)C(C)C)[C@@H](C)O
B4: AcVA(pY)STVVHSG (peptide)
chain: Ac-VA[pY]STVVHSG-NH2
SMILES: CC(=O)N[C@H](C(=O)N[C@@H](C)C(=O)N[C@@H](Cc1ccc(OP(=O)(O)O)cc1)C(=O)N[C@@H](CO)C(=O)N[C@H](C(=O)N[C@H](C(=O)N[C@H](C(=O)N[C@@H](Cc1c[nH]cn1)C(=O)N[C@@H](CO)C(=O)NCC(N)=O)C(C)C)C(C)C)[C@@H](C)O)C(C)C
B5: gp130 phosphopeptide H13A (peptide)
chain: STASTVE[pY]STVVASG-NH2
modifications: N-terminus assumed
SMILES: CC(C)[C@H](NC(=O)[C@@H](NC(=O)[C@@H](NC(=O)[C@H](CO)NC(=O)[C@H](Cc1ccc(OP(=O)(O)O)cc1)NC(=O)[C@H](CCC(=O)O)NC(=O)[C@@H](NC(=O)[C@@H](NC(=O)[C@H](CO)NC(=O)[C@H](C)NC(=O)[C@@H](NC(=O)[C@@H](N)CO)[C@@H](C)O)[C@@H](C)O)C(C)C)[C@@H](C)O)C(C)C)C(=O)N[C@@H](C)C(=O)N[C@@H](CO)C(=O)NCC(N)=O
B6: gp130 phosphopeptide V12A (peptide)
chain: STASTVE[pY]STVAHSG-NH2
modifications: N-terminus assumed
SMILES: CC(C)[C@H](NC(=O)[C@@H](NC(=O)[C@H](CO)NC(=O)[C@H](Cc1ccc(OP(=O)(O)O)cc1)NC(=O)[C@H](CCC(=O)O)NC(=O)[C@@H](NC(=O)[C@@H](NC(=O)[C@H](CO)NC(=O)[C@H](C)NC(=O)[C@@H](NC(=O)[C@@H](N)CO)[C@@H](C)O)[C@@H](C)O)C(C)C)[C@@H](C)O)C(=O)N[C@@H](C)C(=O)N[C@@H](Cc1c[nH]cn1)C(=O)N[C@@H](CO)C(=O)NCC(N)=O

biological target: T1, SOCS-3 (Mus musculus, UniProt O35718); experiment: Competitive binding assay on the Biosensor: soluble peptide displaces SOCS-3 from immobilized gp130 (750-764) phosphopeptide; design: species or system murine; conditions: IC50, Table 2, gp130(750-764) phosphopeptide and analogues
T1 construct: hexahistidine (pET15b) (N); made in house; host or cells: E. coli BL21 DE3 pLysS
T1 sequence (O35718 1-225): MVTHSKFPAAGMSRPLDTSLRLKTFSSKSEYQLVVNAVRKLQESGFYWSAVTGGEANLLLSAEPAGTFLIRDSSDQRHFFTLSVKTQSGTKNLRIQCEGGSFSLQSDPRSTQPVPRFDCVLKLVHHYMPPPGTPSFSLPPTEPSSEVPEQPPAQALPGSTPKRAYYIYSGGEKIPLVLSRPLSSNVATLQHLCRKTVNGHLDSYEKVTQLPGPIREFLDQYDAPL
Experimental: Purified protein was refolded by dialysis into PBS containing 2 mM DTT, 2 mM EDTA and 0.02% v/v Tween 20. Refolded material was purified to homogeneity by ion exchange chromatography on a Mono S column (Pharmacia).
Samples were left overnight at 4° C. prior to analysis on the Biosensor so that the rate of protein loss due to absorption was minimal through the course of the experiment.
The inventors also used this competition assay to reassess the potential solution binding of the phosphopeptides listed in FIG. 1A.

Point of comparison: CC(C)[C@H](NC(=O)[C@@H](NC(=O)[C@H](CO)NC(=O)[C@H](Cc1ccc(OP(=O)(O)O)cc1)NC(=O)[C@H](CCC(=O)O)NC(=O)[C@@H](NC(=O)[C@@H](NC(=O)[C@H](CO)NC(=O)[C@H](C)NC(=O)[C@@H](NC(=O)[C@@H](N)CO)[C@@H](C)O)[C@@H](C)O)C(C)C)[C@@H](C)O)C(=O)N[C@@H](C)C(=O)N[C@@H](Cc1c[nH]cn1)C(=O)N[C@@H](CO)C(=O)NCC(N)=O [STASTVE(pY)STVAHSG] (H-STASTVE[pY]STVAHSG-NH2; N-terminus assumed), IC50 1100 nM. Against it:
- CC(C)[C@H](NC(=O)[C@@H](NC(=O)[C@@H](NC(=O)[C@H](CO)NC(=O)[C@H](Cc1ccc(OP(=O)(O)O)cc1)NC(=O)[C@H](CCC(=O)O)NC(=O)[C@@H](NC(=O)[C@@H](NC(=O)[C@H](CO)NC(=O)[C@H](C)NC(=O)[C@@H](NC(=O)[C@@H](N)CO)[C@@H](C)O)[C@@H](C)O)C(C)C)[C@@H](C)O)C(C)C)C(N)=O [STASTVE(pY)STVV] (H-STASTVE[pY]STVV-NH2; N-terminus assumed) — the same, 1100 nM

same assay, conditions: relative to gp130 (750-764) parent phosphopeptide

Point of comparison: CC(=O)N[C@H](C(=O)N[C@@H](C)C(=O)N[C@@H](Cc1ccc(OP(=O)(O)O)cc1)C(=O)N[C@@H](CO)C(=O)N[C@H](C(=O)N[C@H](C(=O)N[C@H](C(=O)N[C@@H](Cc1c[nH]cn1)C(=O)N[C@@H](CO)C(=O)NCC(N)=O)C(C)C)C(C)C)[C@@H](C)O)C(C)C [AcVA(pY)STVVHSG] (Ac-VA[pY]STVVHSG-NH2), “IC50 analogue/IC50 wild-type” value 5.0. Against it:
- CC(=O)N[C@@H](C)C(=O)N[C@@H](CCC(=O)O)C(=O)N[C@@H](Cc1ccc(OP(=O)(O)O)cc1)C(=O)N[C@@H](CO)C(=O)N[C@H](C(=O)N[C@H](C(=O)N[C@H](C(=O)N[C@@H](Cc1c[nH]cn1)C(=O)N[C@@H](CO)C(=O)NCC(N)=O)C(C)C)C(C)C)[C@@H](C)O [AcAE(pY)STVVHSG] (Ac-AE[pY]STVVHSG-NH2) — higher, 5.3
- CC(C)[C@H](NC(=O)[C@@H](NC(=O)[C@H](CO)NC(=O)[C@H](Cc1ccc(OP(=O)(O)O)cc1)NC(=O)[C@H](CCC(=O)O)NC(=O)[C@@H](NC(=O)[C@@H](NC(=O)[C@H](CO)NC(=O)[C@H](C)NC(=O)[C@@H](NC(=O)[C@@H](N)CO)[C@@H](C)O)[C@@H](C)O)C(C)C)[C@@H](C)O)C(=O)N[C@@H](C)C(=O)N[C@@H](Cc1c[nH]cn1)C(=O)N[C@@H](CO)C(=O)NCC(N)=O [STASTVE(pY)STVAHSG] (H-STASTVE[pY]STVAHSG-NH2; N-terminus assumed) — higher, 10
- CC(=O)N[C@@H](CCC(=O)O)C(=O)N[C@@H](Cc1ccc(OP(=O)(O)O)cc1)C(=O)N[C@@H](CO)C(=O)N[C@H](C(=O)N[C@H](C(=O)N[C@H](C(=O)N[C@@H](Cc1c[nH]cn1)C(=O)N[C@@H](CO)C(=O)NCC(N)=O)C(C)C)C(C)C)[C@@H](C)O [AcE(pY)STVVHSG] (Ac-E[pY]STVVHSG-NH2) — higher, 8.8
- CC(C)[C@H](NC(=O)[C@@H](NC(=O)[C@@H](NC(=O)[C@H](C)NC(=O)[C@H](Cc1ccc(OP(=O)(O)O)cc1)NC(=O)[C@H](CCC(=O)O)NC(=O)[C@@H](NC(=O)[C@@H](NC(=O)[C@H](CO)NC(=O)[C@H](C)NC(=O)[C@@H](NC(=O)[C@@H](N)CO)[C@@H](C)O)[C@@H](C)O)C(C)C)[C@@H](C)O)C(C)C)C(=O)N[C@@H](Cc1c[nH]cn1)C(=O)N[C@@H](CO)C(=O)NCC(N)=O [STASTVE(pY)ATVVHSG] (H-STASTVE[pY]ATVVHSG-NH2; N-terminus assumed) — lower, 0.65
- CC(C)[C@H](NC(=O)[C@@H](NC(=O)[C@@H](NC(=O)[C@H](CO)NC(=O)[C@H](Cc1ccc(OP(=O)(O)O)cc1)NC(=O)[C@H](CCC(=O)O)NC(=O)[C@@H](NC(=O)[C@@H](NC(=O)[C@H](CO)NC(=O)[C@H](C)NC(=O)[C@@H](NC(=O)[C@@H](N)CO)[C@@H](C)O)[C@@H](C)O)C(C)C)[C@@H](C)O)C(C)C)C(=O)N[C@@H](Cc1c[nH]cn1)C(N)=O [STASTVE(pY)STVVH] (H-STASTVE[pY]STVVH-NH2; N-terminus assumed) — lower, 0.70
- CC(=O)N[C@@H](Cc1ccc(OP(=O)(O)O)cc1)C(=O)N[C@@H](CO)C(=O)N[C@H](C(=O)N[C@H](C(=O)N[C@H](C(=O)N[C@@H](Cc1c[nH]cn1)C(=O)N[C@@H](CO)C(=O)NCC(N)=O)C(C)C)C(C)C)[C@@H](C)O [Ac(pY)STVVHSG] (Ac-[pY]STVVHSG-NH2) — higher, 87
- CC(C)[C@H](NC(=O)[C@@H](NC(=O)[C@@H](NC(=O)[C@H](CO)NC(=O)[C@H](Cc1ccc(OP(=O)(O)O)cc1)NC(=O)[C@H](CCC(=O)O)NC(=O)[C@@H](NC(=O)[C@@H](NC(=O)[C@H](CO)NC(=O)[C@H](C)NC(=O)[C@@H](NC(=O)[C@@H](N)CO)[C@@H](C)O)[C@@H](C)O)C(C)C)[C@@H](C)O)C(C)C)C(=O)N[C@@H](Cc1c[nH]cn1)C(=O)N[C@@H](CO)C(N)=O [STASTVE(pY)STVVHS] — lower, 0.55
- CC(C)[C@H](NC(=O)[C@H](C)NC(=O)[C@@H](NC(=O)[C@H](CO)NC(=O)[C@H](Cc1ccc(OP(=O)(O)O)cc1)NC(=O)[C@H](CCC(=O)O)NC(=O)[C@@H](NC(=O)[C@@H](NC(=O)[C@H](CO)NC(=O)[C@H](C)NC(=O)[C@@H](NC(=O)[C@@H](N)CO)[C@@H](C)O)[C@@H](C)O)C(C)C)[C@@H](C)O)C(=O)N[C@@H](Cc1c[nH]cn1)C(=O)N[C@@H](CO)C(=O)NCC(N)=O [STASTVE(pY)STAVHSG] (H-STASTVE[pY]STAVHSG-NH2; N-terminus assumed) — higher, 31
- CC(C)[C@H](NC(=O)[C@@H](NC(=O)[C@@H](NC(=O)[C@H](CO)NC(=O)[C@H](Cc1ccc(OP(=O)(O)O)cc1)NC(=O)[C@H](CCC(=O)O)NC(=O)[C@@H](NC(=O)[C@@H](NC(=O)[C@H](CO)NC(=O)[C@H](C)NC(=O)[C@@H](NC(=O)[C@@H](N)CO)[C@@H](C)O)[C@@H](C)O)C(C)C)[C@@H](C)O)C(C)C)C(N)=O [STASTVE(pY)STVV] (H-STASTVE[pY]STVV-NH2; N-terminus assumed) — higher, 10
- CC(=O)N[C@H](C(=O)N[C@H](C(=O)N[C@@H](CCC(=O)O)C(=O)N[C@@H](Cc1ccc(OP(=O)(O)O)cc1)C(=O)N[C@@H](CO)C(=O)N[C@H](C(=O)N[C@H](C(=O)N[C@H](C(=O)N[C@@H](Cc1c[nH]cn1)C(=O)N[C@@H](CO)C(=O)NCC(N)=O)C(C)C)C(C)C)[C@@H](C)O)C(C)C)[C@@H](C)O [AcTVE(pY)STVVHSG] — lower, 1.1
- CC(C)[C@H](NC(=O)[C@@H](NC(=O)[C@@H](NC(=O)[C@H](CO)NC(=O)[C@H](Cc1ccc(OP(=O)(O)O)cc1)NC(=O)[C@H](CCC(=O)O)NC(=O)[C@@H](NC(=O)[C@@H](NC(=O)[C@H](CO)NC(=O)[C@H](C)NC(=O)[C@@H](NC(=O)[C@@H](N)CO)[C@@H](C)O)[C@@H](C)O)C(C)C)[C@@H](C)O)C(C)C)C(=O)N[C@@H](C)C(=O)N[C@@H](CO)C(=O)NCC(N)=O [STASTVE(pY)STVVASG] (H-STASTVE[pY]STVVASG-NH2; N-terminus assumed) — higher, 7.0

Biological target: T2, SOCS-3 (recombinant, His-tagged) (mouse, UniProt O35718)
T2 chain: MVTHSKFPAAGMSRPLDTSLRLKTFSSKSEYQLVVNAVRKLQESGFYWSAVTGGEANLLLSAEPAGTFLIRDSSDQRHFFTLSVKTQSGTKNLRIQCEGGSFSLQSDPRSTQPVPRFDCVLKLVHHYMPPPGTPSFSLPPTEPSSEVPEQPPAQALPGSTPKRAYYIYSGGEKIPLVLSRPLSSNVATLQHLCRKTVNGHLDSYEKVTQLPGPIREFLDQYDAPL
Experiment: competition, SPR
Conditions: not given

Point of comparison: B5, IC50 770 nM. Against it:
- B1 — 6.4-fold lower, 120 nM
- B2 — 12-fold higher, 9600 nM
- B3 — within 1.5-fold, 970 nM
- B4 — within 1.5-fold, 550 nM
- B6 — within 1.5-fold, 1100 nM
